The values below come from US8765459B2, “Apparatus and methods for manipulation and optimization of biological systems” (The Regents of the University of California, priority 2004, dated 2014).

The subject of assay [1] is NF-κB. Put plainly: Gur Game closed-loop optimization of cytokine combination, NF-κB GFP reporter in microfluidic channels. Format: cell-based. As to conditions: 293T cells with κB4-GFP reporter; 1 h stimulation, GFP read 7 h after; determined by final probability distributions of Gur Game search. The procedure: To implement the Gur Game algorithm, each cytokine was represented by an automaton with 10 discrete states (0, 0.25, 0.5, 1, 2.5, 5, 10, 25, 50, and 100 ng/ml) as shown in FIG. 6. At each iteration, a combination of cytokines at their respective states was applied to stimulate the cells for one hour. […] The GFP expression kinetics is thought to be controlled by protein folding and degradation rates, while the amount of transcription (GFP intensity) is thought to provide an indication of the NF-κB activity. The peak intensities were normalized as the reward function for Gur Game. The reward function maps the system state from 0 to 1, with high GFP intensity corresponds to values nearer 1. For each automaton, a random number from 0 to 1 is chosen and compared with the reward value. The next states of the automata were determined according to a prescribed manner (see FIG. 1). The process was repeated for each cytokine during each iteration.
(§1) Microfluidic systems have been proven to be effective for manipulating different biological objects, such as cells and molecules. In this example, the optimization experiments were conducted inside microfluidic channels to facilitate real-time monitoring and dynamic stimulation of the cells. (In FIGS. 7a, the concentrations of individual cytokines are indicated as follows: TNFα concentrations are plotted as solid squares; TNFβ concentrations are plotted as solid circles; IL-1α concentrations are plotted as solid triangles; IL-1β concentrations are plotted as inverted triangles; EFG concentrations are plotted as open squares; and BAFF concentrations are plotted as open circles.) The initial concentrations of the cytokines were 2.5 ng/ml. In order to monitor the activity of the NF-κB, a plasmid with a green fluorescent protein (GFP) reporter gene was placed in the 293T cell. The GFP expression is controlled by a promoter which consisted of a kappa enhancer element (κB4). Similar configurations have been applied in other studies where the GFP fluorescence intensity was able to reflect the cellular NF-κB activity. In addition, computational analysis was performed to correlate the relationship between the expression level of GPF and the activity of NF-κB. Numerical simulation indicated the best duration and time for cytokine stimulation and GFP intensity measurement. The GFP fluorescence intensity of each cell was recorded 7 hours after the stimulation as shown in FIG. 7B (data represent the average intensity of 40-128 cells).
The Gur Game was used to determine the cytokine concentrations in subsequent iterations to probabilistically drive the system toward a high GFP output, i.e. high NF-κB activity. FIG. 6 is a flow chart illustrating an exemplary Gur Game Algorithm, the algorithm used in this example. A detailed description of this exemplary algorithm is set forth above. The peak intensities were normalized as the reward function for this exemplary Gur Game algorithm. The reward function maps the system state from 0 to 1, with high GFP intensity corresponds to values nearer 1. For each automaton, a random number from 0 to 1 is chosen and compared with the reward value.
The next states of the automata were determined according to a prescribed manner, as illustrated in FIG. 7. The process was repeated for each cytokine during each iteration. Each cytokine as represented by an automaton. The numbers represent the concentration of the cytokines, in ng/ml. During each iteration, a random number was generated for each automaton. The numbers were compared to the reward value. If the reward value was larger than the random number, the automaton was rewarded (win). Otherwise, the automaton was penalized (lose). The automaton then decided the state in the next iteration according to the automaton design. Generally, the state moves toward center if penalized, and away the center if rewarded.
Referring to FIGS. 8aand 8b, initially, the system rejected several cytokine combinations with seemingly high outputs. […]

In assay [2] the test system is NF-κB. Put plainly: Sensitivity analysis of individual cytokines in the potent combination, NF-κB GFP reporter, 96-well plates. Format: cell-based. To be noted: 293T cells; for effect on NF-κB activity when varied within the potent cytokine combination / decrease in fluorescence intensity on elimination of the cytokine from the cytokine combination: 96-well plates, other cytokines held constant, 1 h stimulation, fluorescence 7 h after. Here is the method: as §1
Experiments were conducted in 96-well plates. The cells were stimulated with the appropriate concentration of cytokines for one hour and washed with fresh media.

As to “BAFF: cytokine tested in the combination for NF-κB activity”, the “concentration in the most potent cytokine combination for activating NF-κB” value (shortened to “concentration”) in the assay on NF-κB [1] was 2.5 ng/mL. In the assay on NF-κB [2], the “effect on NF-κB activity alone, without the potent cytokine combination” value is listed as “minimal effect” and the “effect on NF-κB activity when varied within the potent cytokine combination” value was “minimal effect”.
With “IL-1β: cytokine used as stimulus of NF-κB activity”, in the assay with NF-κB [1], the “concentration” value came out at 25 ng/mL. In addition, in the assay on NF-κB [2], the “decrease in fluorescence intensity on elimination of the cytokine from the cytokine combination” value (shortened to “decrease in fluorescence intensity”) was roughly 30% and the “effect on NF-κB activity when varied within the potent cytokine combination” value is on record as “not sensitive to their concentrations in the range of 25-50 ng/ml”.
Regarding TNFα, the “concentration” value in the assay on NF-κB [1] turned out to be 25 ng/mL. In the assay with NF-κB [2], the “decrease in fluorescence intensity” value was roughly 50% and the “effect on NF-κB activity when varied within the potent cytokine combination” value is reported as “most sensitive in the combination”.
epidermal growth factor [EGF]: the “concentration” value with NF-κB [1] is 2.5 ng/mL. In the assay on NF-κB [2], the “effect on NF-κB activity alone, without the potent cytokine combination” value was “did not show a strong effect” and the “effect on NF-κB activity when varied within the potent cytokine combination” value is “decreased the NF-κB activity with increasing dose concentration”.

B1: TNFβ: cytokine used as stimulus of NF-κB activity (protein, UniProt P01374 35-205, looked up)
Lymphotoxin-alpha: LPGVGLTPSAAQTARQHPKMHLAHSTLKPAAHLIGDPSKQNSLLWRANTDRAFLQDGFSLSNNSLLVPTSGIYFVYSQVVFSGKAYSPKATSSPLYLAHEVQLFSSQYPFHVPLLSSQKMVYPGLQEPWLHSMYHGAAFQLTQGDQLSTHTDGIPHLVLSPSTVFFGAFAL
With B1, the “concentration” value with NF-κB [1] worked out at 50 ng/mL. Also, the “decrease in fluorescence intensity” value in the assay on NF-κB [2] is on record as roughly 30%.

B2: IL-1α: cytokine used as stimulus of NF-κB activity (protein, UniProt P01583 113-271, looked up)
Interleukin-1 alpha: SAPFSFLSNVKYNFMRIIKYEFILNDALNQSIIRANDQYLTAAALHNLDEAVKFDMGAYKSSKDDAKITVILRISKTQLYVTAQDEDQPVLLKEMPEIPKTITGSETNLLFFWETHGTKNYFTSVAHPNLFIATKQDYWVCLAGGPPSITDFQILENQA
Take B2: the “concentration” value with NF-κB [1] came to 50 ng/mL. In the assay on NF-κB [2], the “decrease in fluorescence intensity” value is on record as roughly 30% and the “effect on NF-κB activity when varied within the potent cytokine combination” value is recorded as “not sensitive to their concentrations in the range of 25-50 ng/ml”.
